Patent US20230331690A1, “THC DERIVATIVES, ORAL DOSAGE FORMS COMPRISING SAME, USES THEREOF FOR TREATING DISEASES AND DISORDERS AND SYNTHESIS THEREOF” (BAR-ILAN UNIVERSITY, priority 2020, published 2023)
Where “and” joins values, the source holds several entries; their conditions need not be identical. Identical values can stand only once. Like-named read-outs stand apart in the source and are kept apart here.

Key:
mice = assay: Hot plate assay, withdrawal reflex latency (WRL); format: in vivo; conditions: for Hot plate Time: per animal
[1] = Pharmacokinetics, blood samples (Example 17); conditions: for concentration at 0.5 h: mouse, blood, ip, Component in the blood, label = analyte
Description: The pharmacokinetics of 9-CD3-(8-D2)-THC compared to natural THC was evaluated using both intraperitoneal i.p. injection and an oral gavage administration for each material. The mice were divided into four groups containing 6 mice (24 mice total). For each group of mice, a blood sample was withdrawn at baseline (t=0), and half-hour intervals (t=0.5, 2 and 5 h) after administration of the drug. Three mice, half of each group, were euthanized with CO2 after 5 h and their organs (brain and liver) were collected. From the second half of each group, another blood sample was withdrawn 24 h after administration, and then these animals were euthanized and the brain and liver were collected for analysis.

[2] = Pharmacokinetics, liver samples (Example 17); format: in vivo, mice; conditions: for concentration at 24 h / concentration at 5 h: mouse, liver; for concentration at 24 h: ip; for concentration at 5 h: po
[3] = Persistence over time, blood samples (Example 18); format: in vivo, mice
Description: (§1) Blood samples from each mouse were collected at each time point for the pharmacokinetics tests. For 6 h after administrating of all tested drugs, and after testing their WRL on the hot plate, half the mice (n=3) of each group were sacrificed, and the liver and brain of each animal were taken for pharmacokinetics tests. From the remaining mice, blood samples were acquired at 12 h after administration for pharmacokinetics tests. At 24 h after drug administration, and after checking the WRL again, second half of each group of mice were sacrificed, and the liver and brain of each animal were taken for pharmacokinetics tests.

[4] = Persistence over time, brain samples postmortem (Example 18); format: in vivo, mice
Description: as §1
(§2) All the results of the brain and liver samples, which were taken postmortem 6 h or 24 h after administration (n=3) are summarized in Tables 12-13.

[5] = Persistence over time, liver samples postmortem (Example 18); format: in vivo, mice; conditions: mouse, liver, oral, read-out: Average results for 3 mice (Table 13, liver); for concentration at 6 h: died at 6 h; for concentration at 24 h: died at 24 h, number in brackets = mice with a value
Description: as §1, §2

[6] = Body temperature by rectal thermometer (hypothermia)
[7] = 8 mg/Kg oral, t = 6 h, listed as THC-d5

Structure (SMILES): [2H]C([2H])([2H])C1=C[C@H]2c3c(O)cc(CCCCC)cc3OC(C)(C)[C@@H]2CC1([2H])[2H] [9-CD3-(8-D2)-THC]
- Hot plate Avg. 6 mice (mice; 2 mg/Kg oral, t = 0.5 h): 9.52 s
- Hot plate Time (mice; 2 mg/Kg oral, t = 0.5 h, listed as THC-d5): 9.4 s and 9.3 s and 8.9 s and 10.9 s and 12.0 s and 6.6 s
- Hot plate Avg. 6 mice (mice; 2 mg/Kg oral, t = 3 h): 10.97 s
- Hot plate Time (mice; 2 mg/Kg oral, t = 3 h, listed as THC-d5): 7.2 s and 12.1 s and 8.5 s and 19.3 s and 13.1 s and 5.6 s
- Hot plate Avg. 6 mice (mice; 2 mg/Kg oral, t = 6 h): 10.07 s
- Hot plate Time (mice; 2 mg/Kg oral, t = 6 h, listed as THC-d5): 9.3 s and 14.5 s and 4.5 s and 15.8 s and 8.9 s and 7.4 s
- Hot plate Avg. 3 mice (mice; 2 mg/Kg oral, t = 24 h): 8.3 s
- Hot plate Time (mice; 2 mg/Kg oral, t = 24 h, listed as THC-d5): 7.9 s and 9.5 s and 7.5 s
- increase in the WRL compared to baseline (mice; 2 mg/kg, 0.5 h): 3%
- change in average WRL compared to baseline (mice; 2 mg/kg, 3 h): +19%
- change in average WRL compared to baseline (mice; 2 mg/kg, 6 h): +9%
- Hot plate Avg. 6 mice (mice; 4 mg/Kg oral, t = 0.5 h): 14.03 s
- Hot plate Time (mice; 4 mg/Kg oral, t = 0.5 h, listed as THC-d5): 19.2 s and 10.3 s and 13.0 s and 9.5 s and 15.8 s and 16.4 s
- Hot plate Avg. 6 mice (mice; 4 mg/Kg oral, t = 3 h): 13.77 s
- Hot plate Time (mice; 4 mg/Kg oral, t = 3 h, listed as THC-d5): 17.5 s and 11.8 s and 12.1 s and 9.2 s and 12.5 s and 19.5 s
- Hot plate Avg. 6 mice (mice; 4 mg/Kg oral, t = 6 h): 15.38 s
- Hot plate Time (mice; 4 mg/Kg oral, t = 6 h, listed as THC-d5): 8.7 s and 19.9 s and 12.1 s and 8.3 s and 22.5 s and 20.8 s
- Hot plate Avg. 3 mice (mice; 4 mg/Kg oral, t = 24 h): 14.27 s
- Hot plate Time (mice; 4 mg/Kg oral, t = 24 h, listed as THC-d5): 5.2 s and 21.5 s and 16.1 s
- increase in the WRL compared to baseline (mice; 4 mg/kg, 0.5 h): 68%
- change in average WRL compared to baseline (mice; 4 mg/kg, 3 h): +65%
- change in average WRL compared to baseline (mice; 4 mg/kg, 6 h): +85%
- Hot plate Avg. 6 mice (mice; 8 mg/Kg oral, t = 0.5 h): 15.42 s
- Hot plate Time (mice; 8 mg/Kg oral, t = 0.5 h, cut-off 30 s, listed as THC-d5): 19.9 s and 24.5 s and 11.1 s and 17.5 s and 10.1 s and 9.4 s
- Hot plate Avg. 6 mice (mice; 8 mg/Kg oral, t = 3 h): 22.1 s
- Hot plate Time (mice; 8 mg/Kg oral, t = 3 h, cut-off 30 s, listed as THC-d5): 30.0 sec. (3×) and 6.0 sec. and 26.2 sec. and 10.4 sec.
- Hot plate Avg. 6 mice (mice; 8 mg/Kg oral, t = 3 h, listed as THC-d5): 22.10 s
- Hot plate Avg. 6 mice (mice; 8 mg/Kg oral, t = 6 h): 8.4 s
- Hot plate Time (mice; [7]): 6.4 s and 9.8 s and 11.5 s and 7.1 s and 13.4 s and 2.3 s
- Hot plate Avg. 6 mice (mice; [7]): 8.42 s
- Hot plate Avg. 3 mice (mice; 8 mg/Kg oral, t = 24 h): 20.8 s
- animal outcome printed in the hot plate Time column (mice; 8 mg/Kg oral, t = 24 h, animal 20): Died
- Hot plate Time (mice; 8 mg/Kg oral, t = 24 h, cut-off 30 s, listed as THC-d5): 30.0 s and 11.2 s
- Hot plate Avg. 3 mice (mice; 8 mg/Kg oral, t = 24 h, listed as THC-d5): 20.6 s
- analgesic effect compared to natural THC and morphine (mice; 8 mg/kg oral, up to 24 h after administration): stronger and longer lasting analgesic effect
- average increase in WRL compared to baseline (t=0) (mice; 8 mg/kg, 0.5 h): 67.6%
- change in average WRL compared to t=0 at baseline (mice; 8 mg/kg, 3 h): 140%
- average blood concentration, times higher than THC ([1]; 0.5 h after i.p. administration): 1.87 times
- concentration at 0.5 h ([1]; Average, 0.5 h after i.p. injection of THC or THC-d5, n=6 (THC-d5 n=5)): 110 ng/mL
- concentration at 0.5 h ([1]; mouse 1, 0.5 h after i.p. injection of THC or THC-d5): 183 ng/mL
- concentration at 0.5 h ([1]; mouse 2, 0.5 h after i.p. injection of THC or THC-d5): 93.8 ng/mL
- concentration at 0.5 h ([1]; mouse 4, 0.5 h after i.p. injection of THC or THC-d5): 141 ng/mL
- concentration at 0.5 h ([1]; mouse 5, 0.5 h after i.p. injection of THC or THC-d5): 74.1 ng/mL
- concentration at 0.5 h ([1]; mouse 6, 0.5 h after i.p. injection of THC or THC-d5): 58.9 ng/mL
- average liver concentration, times more than THC ([2]; 5 h after oral gavage administration): 1.59 times
- average liver concentration, times more than THC ([2]; 24 h after i.p. administration): 1.40 times
- concentration at 24 h ([2]; 24 h after i.p. administration, n=3, read-out: average liver concentration): 10.7 ng/g
- concentration at 24 h ([2]; 24 h after i.p. injection of THC or THC-d5, label = analyte, n=3, read-out: Component in the liver, Average): 10.7 ng/mL
- concentration at 24 h ([2]; 24 h after i.p. injection of THC or THC-d5, label = analyte, read-out: Component in the liver, mouse 1): 12.4 ng/mL
- concentration at 24 h ([2]; 24 h after i.p. injection of THC or THC-d5, label = analyte, read-out: Component in the liver, mouse 2): 15 ng/mL
- concentration at 24 h ([2]; 24 h after i.p. injection of THC or THC-d5, label = analyte, read-out: Component in the liver, mouse 3): 4.64 ng/mL
- concentration at 5 h ([2]; 5 h after oral gavage administration of THC or THC-d5, label = analyte, n=3, read-out: Component in the liver, Average): 5.99 ng/mL
- concentration at 5 h ([2]; 5 h after oral gavage administration of THC or THC-d5, label = analyte, read-out: Component in the liver, mouse 1): 5.57 ng/mL
- concentration at 5 h ([2]; 5 h after oral gavage administration of THC or THC-d5, label = analyte, read-out: Component in the liver, mouse 2): 6.28 ng/mL
- concentration at 5 h ([2]; 5 h after oral gavage administration of THC or THC-d5, label = analyte, read-out: Component in the liver, mouse 3): 6.13 ng/mL
- concentration at 5 h ([2]; 5 h after oral gavage administration, n=3, read-out: average liver concentration): 5.99 ng/g
- Average results, blood samples ([3]; 4 mg/kg administration, Time 3 h, label = analyte): 1.44 (4/4) ng/mL
- Average results, blood samples ([3]; 8 mg/kg administration, Time 12 h (3 mice), label = analyte): 0.15 (1/1) ng/mL
- metabolic stability compared to THC ([3]; conclusion from mouse blood, brain and liver samples): better metabolic stability than THC
- concentration at 0.5 h ([3]; mouse, blood, oral, 4 mg/kg administration of THC or THC-d5, Time 0.5 h, label = analyte): 10.4 ng/mL
- concentration at 0.5 h ([3]; mouse, blood, oral, 8 mg/kg administration of THC or THC-d5, Time 0.5 h, label = analyte): 22.5 ng/mL
- concentration at 3 h ([3]; mouse, blood, oral, 8 mg/kg administration, Time 3 h, label = analyte): 7.27 ng/mL
- concentration at 6 h ([3]; mouse, blood, oral, 8 mg/kg administration, Time 6 h, label = analyte): 1.81 ng/mL
- presence in the brain ([4]; 24 h after administration, highest concentration of 8 mg/kg): evidence for the synthetic material in the brain
- concentration at 6 h ([4]; mouse, brain, oral, 8 mg/kg administered, died at 6 h, number in brackets = mice with a value, read-out: Average results for 3 mice - brain samples): 48 ng/g
- concentration at 6 h ([5]; 2 mg/kg administered): 3.31 ng/g
- concentration at 24 h ([5]; 2 mg/kg administered): 0.75 ng/g
- concentration at 6 h ([5]; 4 mg/kg administered): 16.1 ng/g
- concentration at 6 h ([5]; 8 mg/kg administered): 57.8 ng/g
- concentration at 24 h ([5]; 8 mg/kg administered): 1.64 ng/g
- time of strongest effect on body temperature after drug administration ([6]; high concentration of 8 mg/kg oral): 3 h
- hypothermia effect (body temperature) ([6]; medium concentration of 4 mg/kg oral): very clear hypothermia effect
- Body temperature, Avg. change compared to t = 0, at t = 3 h ([6]; mice, avg. of 6 mice, 8 mg/kg (groups C+D), t = 3 h after administration): −2.6 °C
- Animal status in the Temp. column at t = 24 h ([6]; mice, group D, 8 mg/kg, single animal, t = 24 h): Died
